Data from US12116388B2, “Amylin receptor agonists” (Novo Nordisk A/S, priority 2022, dated 2024).
Starred links: 1 amine or outer side, 2 acyl side, 3 side chain; linkers in the order of their positions; H or OH if unused. Residues, ends and D or L forms follow the SMILES beside them. *: point of attachment. C20 diacid = O=C(O)CCCCCCCCCCCCCCCCCCC(=O)*; C18 diacid = O=C(O)CCCCCCCCCCCCCCCCC(=O)*; γGlu = O=C(O)[C@H](CCC(=O)[*:2])N[*:1]

Assays:
[1] = target: T1, human calcitonin receptor (hCTR) (Homo sapiens, UniProt P30988); assay: Human calcitonin receptor (hCTR) in vitro potency assay, CRE-luciferase reporter in BHK cells; assay type: cell-based; details: BHK hCTR/CRE-Luc cells, 3 hours incubation, assay buffer with 1% ovalbumin; read-out: hCalcR potency, EC50
T1 construct: host or cells: BHK (Baby Hamster Kidney), Hollex-1 cell line
T1 sequence (P30988 25-474): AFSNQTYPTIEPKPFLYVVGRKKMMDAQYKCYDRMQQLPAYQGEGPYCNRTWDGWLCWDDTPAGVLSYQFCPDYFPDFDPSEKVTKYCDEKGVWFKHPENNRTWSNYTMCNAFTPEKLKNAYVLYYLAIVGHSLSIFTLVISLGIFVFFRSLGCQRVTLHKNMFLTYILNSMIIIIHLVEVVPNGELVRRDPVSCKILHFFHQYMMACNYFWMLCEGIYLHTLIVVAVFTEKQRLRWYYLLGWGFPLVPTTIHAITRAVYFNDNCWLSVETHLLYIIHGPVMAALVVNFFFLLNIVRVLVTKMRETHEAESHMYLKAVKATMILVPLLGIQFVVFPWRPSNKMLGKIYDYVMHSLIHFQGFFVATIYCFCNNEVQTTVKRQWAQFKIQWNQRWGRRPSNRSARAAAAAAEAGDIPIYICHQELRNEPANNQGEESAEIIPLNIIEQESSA
Excerpt: (§1) Activation of hCTR leads to increased cellular concentrations of CAMP. Consequently, transcription is activated by promotors containing multiple copies of the CAMP response element (CRE). It is thus possible to measure hCTR activity using a CRE-luciferase reporter gene introduced into Baby Hamster Kidney (BHK) cells co-expressing the hCTR.
(§2) A BHK cell line was stably transfected with the human calcitonin receptor (a) and a CRE-responsive luciferase (CRE-Luc) reporter gene according to methods known to the person skilled in the art (Hollex-1 cell line, obtained from Zymogenetics described in U.S. Pat. No. 5,622,839).
(§3) Cells stocks were prepared by culturing of the stably transfected BHK hCTR/CRE-Luc cell line in growth medium consisting of DMEM (Gibco, 31966-021) supplemented with 10% FBS (Gibco, 16140-071), 1% Pen/Strep (Gibco, 15140-122), 0.5 mg/mL Geneticin (Gibco, 10131-027) and 250 nM Methotrexate (Sigma, A6770). Cells at approximately 80-90% confluence were washed once with PBS (Gibco 14190-094) and loosened from the cell flasks with Versene (Gibco, 15040-033) or TrypLE™ (Gibco, 12605-010). After centrifugation, the cell pellet was dissolved and diluted to approximately 2.5×10E6 cells/mL in Recovery™ Cell Culture Freezing Medium (Gibco, 12648-010). Cells were aliquoted and stored at −180° C. until use.
(§4) The assay buffer consisted of DMEM without phenol red (Gibco, 11880-028) supplemented with 1× GlutaMAX (Gibco, 35050-038), 10 mM HEPES (Gibco, 15630-056) and 1% (w/v) ovalbumin (Sigma, A5503).
(§5) To perform the assay, BHK hCTR/CRE-Luc cells were thawed, washed once in PBS and seeded in 40 μL growth medium in a white 384-well culture plate (PerkinElmer, 6007688) at a cell density of 4.000 cells/well on the day before the experiment. The plate was incubated over night at 37° C. in 5% CO2. On the day of the assay, cells were washed once in assay buffer. Serial dilutions (7-fold dilutions, 7 concentrations Pr. compound and one well containing only assay buffer) of comparator compounds and amylin analogues were performed in assay buffer often starting from approximately 10 nM in 96-well plates and 30 μL of each concentration added to the 384-well assay plate with cells. The assay plate was incubated for 3 hours at 37° C. in 5% CO2 after which 30 μL SteadyLite Plus (PerkinElmer, 6066759) was added to each well. The assay plate was sealed, incubated at room temperature with gentle shaking for 5 minutes followed by 30 minutes incubation without shaking while protected from light. Luminescence was detected on a luminescence plate reader e.g. a Synergy 2 (BioTek).

[2] = target: T2, human amylin receptor (hAMYR3) (Homo sapiens, UniProt O60896+P30988); assay: Human amylin receptor (hAMYR3) in vitro potency assay, CRE-luciferase reporter in BHK cells; assay type: cell-based; details: BHK hAMYR3/CRE-Luc cells, 3 hours incubation, assay buffer with 1% ovalbumin
T2 construct: host or cells: BHK (Baby Hamster Kidney), Hollex-1 cell line further transfected with RAMP3
Excerpt: as §1, with “hAMYR3” for “hCTR”, “cAMP.” for “CAMP.”, “hAMYR3.” for “hCTR.”
as §2, with “5,622,839). The cell line was further transfected with human receptor modifying protein 3 (RAMP3) using standard methods. This turns the human calcitonin receptor into a human amylin-3(a) receptor.” for “5,622,839).”
as §3, with “hAMYR3/CRE-Luc” for “hCTR/CRE-Luc”, “10131-027), 0.4 mg/mL Hygromycin (Invitrogen, 10687010)” for “10131-027)”
as §4
as §5, with “hAMYR3/CRE-Luc” for “hCTR/CRE-Luc”

T2 sequence (O60896 24-148, one chain of several): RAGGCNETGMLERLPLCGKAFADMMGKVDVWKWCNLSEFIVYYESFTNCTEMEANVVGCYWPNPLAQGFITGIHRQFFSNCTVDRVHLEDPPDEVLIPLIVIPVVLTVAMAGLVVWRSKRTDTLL

Row | EC50 [1] | EC50 [2] | Structure (SMILES)
1 | 1.81 pM | 1.68 pM | CC[C@H](C)[C@H](NC(=O)[C@H](C)NC(=O)CNC(=O)[C@H](Cc1ccccc1)NC(=O)[C@@H]1CCCN1C(=O)[C@H](CC(=O)O)NC(=O)[C@H](CO)NC(=O)[C@H](CO)NC(=O)[C@H](Cc1c[nH]cn1)NC(=O)[C@H](Cc1c[nH]cn1)NC(=O)[C@H](CC(C)C)NC(=O)[C@H](Cc1ccccc1)NC(=O)[C@H](CCC(=O)O)NC(=O)[C@H](C)NC(=O)[C@H](CC(C)C)NC(=O)[C@H](CCCNC(=N)N)NC(=O)[C@H](CCC(N)=O)NC(=O)[C@@H](NC(=O)[C@H](CCC(N)=O)NC(=O)[C@H](C)NC(=O)[C@@H](NC(=O)[C@H](CO)NC(=O)[C@H](CC(C)C)NC(=O)[C@H](Cc1c[nH]cn1)NC(=O)CNC(=O)[C@H](C)NC(=O)CC[C@H](NC(=O)CCCCCCCCCCCCCCCCCCC(=O)O)C(=O)O)[C@@H](C)O)[C@@H](C)O)C(=O)N1CCC[C@H]1C(=O)N[C@@H](CO)C(=O)N[C@@H](CO)C(=O)N[C@H](C(=O)N[C@@H](CC(=O)O)C(=O)N[C@H](C(=O)NCC(=O)N1CCC[C@H]1C(=O)N[C@@H](CC(=O)O)C(=O)N[C@H](C(=O)N1CCC[C@H]1C(N)=O)[C@@H](C)O)C(C)C)[C@@H](C)O [Compound 7, N^1-[(4S)-4-carboxy-4-(19-carboxynonadecanoylamino)butanoyl]-[Ala1,Gly2,His3,Leu4,Ser5,Ala7,Gln8,Glu14,His17,Asp21,Pro22,Pro27,Asp31,Pro34,Asp35,Pro37]-human amylin] ({C20 diacid-γGlu}-AGHLSTAQTQRLAEFLHHSSDPFGAIPSSTDVGPDTP-NH2)
2 | 1.68 pM | 2.18 pM | CC[C@H](C)[C@H](NC(=O)[C@H](C)NC(=O)CNC(=O)[C@H](Cc1ccccc1)NC(=O)[C@@H]1CCCN1C(=O)[C@H](CC(=O)O)NC(=O)[C@H](CO)NC(=O)[C@H](CO)NC(=O)[C@H](Cc1c[nH]cn1)NC(=O)[C@H](Cc1c[nH]cn1)NC(=O)[C@H](CC(C)C)NC(=O)[C@H](Cc1ccccc1)NC(=O)[C@H](CCC(=O)O)NC(=O)[C@H](C)NC(=O)[C@H](CC(C)C)NC(=O)[C@H](CCCNC(=N)N)NC(=O)[C@H](CCC(N)=O)NC(=O)[C@@H](NC(=O)[C@H](CCC(N)=O)NC(=O)[C@H](C)NC(=O)[C@@H](NC(=O)[C@H](CO)NC(=O)[C@H](CC(C)C)NC(=O)[C@H](Cc1c[nH]cn1)NC(=O)[C@H](CO)NC(=O)[C@H](C)NC(=O)CC[C@H](NC(=O)CC[C@H](NC(=O)CCCCCCCCCCCCCCCCC(=O)O)C(=O)O)C(=O)O)[C@@H](C)O)[C@@H](C)O)C(=O)N1CCC[C@H]1C(=O)N[C@@H](CO)C(=O)N[C@@H](CO)C(=O)N[C@H](C(=O)N[C@@H](CC(=O)O)C(=O)N[C@H](C(=O)NCC(=O)N1CCC[C@H]1C(=O)N[C@@H](CC(=O)O)C(=O)N[C@H](C(=O)N1CCC[C@H]1C(N)=O)[C@@H](C)O)C(C)C)[C@@H](C)O [Compound 9, N^1-[(4S)-4-carboxy-4-[[(4S)-4-carboxy-4-(17-carboxyheptadecanoylamino)butanoyl]amino]butanoyl]-[Ala1,Ser2,His3,Leu4,Ser5,Ala7,Gln8,Glu14,His17,Asp21,Pro22,Pro27,Asp31,Pro34,Asp35,Pro37]-human amylin] ({C18 diacid-γGlu-γGlu}-ASHLSTAQTQRLAEFLHHSSDPFGAIPSSTDVGPDTP-NH2)
3 | 1.58 pM | 2.43 pM | CC[C@H](C)[C@H](NC(=O)[C@H](C)NC(=O)CNC(=O)[C@H](Cc1ccccc1)NC(=O)[C@@H]1CCCN1C(=O)[C@H](CC(=O)O)NC(=O)[C@H](CO)NC(=O)[C@H](CO)NC(=O)[C@H](Cc1c[nH]cn1)NC(=O)[C@H](Cc1c[nH]cn1)NC(=O)[C@H](CC(C)C)NC(=O)[C@H](Cc1ccccc1)NC(=O)[C@H](CCC(=O)O)NC(=O)[C@H](C)NC(=O)[C@H](CC(C)C)NC(=O)[C@H](CCCNC(=N)N)NC(=O)[C@H](CCC(N)=O)NC(=O)[C@@H](NC(=O)[C@H](CCC(N)=O)NC(=O)[C@H](C)NC(=O)[C@@H](NC(=O)[C@H](CO)NC(=O)[C@H](CC(C)C)NC(=O)[C@H](CCC(=O)O)NC(=O)CNC(=O)[C@H](C)NC(=O)CC[C@H](NC(=O)CCCCCCCCCCCCCCCCC(=O)O)C(=O)O)[C@@H](C)O)[C@@H](C)O)C(=O)N1CCC[C@H]1C(=O)N[C@@H](CO)C(=O)N[C@@H](CO)C(=O)N[C@H](C(=O)N[C@@H](CC(=O)O)C(=O)N[C@H](C(=O)NCC(=O)N1CCC[C@H]1C(=O)N[C@@H](CC(=O)O)C(=O)N[C@H](C(=O)N1CCC[C@H]1C(N)=O)[C@@H](C)O)C(C)C)[C@@H](C)O [Compound 11, N^1-[(4S)-4-carboxy-4-(17-carboxyheptadecanoylamino)butanoyl]-[Ala1,Gly2,Glu3,Leu4,Ser5,Ala7,Gln8,Glu14,His17,Asp21,Pro22,Pro27,Asp31,Pro34,Asp35,Pro37]-human amylin] ({C18 diacid-γGlu}-AGELSTAQTQRLAEFLHHSSDPFGAIPSSTDVGPDTP-NH2)
